Experimental data as given in patent publication US20140220000A1, “MHC ENGAGEMENT AND CLIP MODULATION FOR THE TREATMENT OF DISEASE” (Scott & White Healthcare, priority 2011, published 2014).

How the values were obtained:
CRL-5822 cells [1] = test: Viability counts of CRL-5822 cells after CpG, MKR.4 and Anti MHC Class II treatment (Example 2); format: cell-based; details: CpG 1 ug/mL, MKR.4 2.5 ug/mL, Anti MHC Class II 5 ug/mL, 24 hours after antibody
Experimental: CRL-5822 were Prepared as Follows: • Removed the media from a flask of CRL-5822 using a sterile glass pipet and vacuum • Added 1.5 mL of accutase to the flask and placed in incubator for 20 minutes • Washed with 3 mL of PBS • Transferred all to a sterile 15 mL conical tube • Centrifuged for 5′ @ 1000 rpm • Removed supernatant with sterile glass pipet and vacuum • Resuspended in 3 mL of PBS • Performed a hemacytometer count indicating: 1.14*10^6 cells total of CRL-5822 cells • 1.14*10^6/8 wells+2 wells for culture maintenance=10 wells • 1.14*10^6/10 wells=[…] cells per well • Centrifuged the 3 mL of cell suspension for 5′ at 1000 rpm • Resuspended pellet in 10 mL of 10% FBS RPMI • 1 mL of this was added to 2 wells in a 12-well plate added 1 mL of fresh 10% FBS RPMI to each well to bring the total volume up to 2 mL.
(§1) 8 wells were set up for the experiment for each cell type (CRL-5822 and C57BL/6) with no treatment, with CpG, MKR.4 peptide, with MKR.4 peptide+CpG and with or without addition of purified Anti Class-II (HLA-DR,DP,DQ) treatment in the amounts listed below.
CRL-5822 • CpG:(x) (1 mg/mL stock)=(1 ug/mL) (2 mL)x=2 ul • MKR.4: (x) (5 mg/mL stock)=(2.5 ug/mL) (2 mL) x=1 ul • Anti MHC Class II: Treat at 5 ug/mL; Stock is at 1 mg/mL; (x) (1 mg/mL)=(5 ug/mL) (2 mL); x=10 μl/well
(§2) CpG was administered to activate the cells and induce CLIP expression. MKR.4 was added to select wells 24 hours after cell activation. The cells were incubated with MKR.4 for 2 hours. Then fresh media with or without Anti MHC Class II was added. 24 hours after Anti MHC Class II was added to the wells viability counts were performed.

WITT cells = test: Hemacytometer viability counts of WITT cells after CpG, MKR.4 and anti-class II treatment (Example 3); format: cell-based, human; details: 24 hours after anti-class II
Experimental: 0.59*10^6 cells/mL*5 mL=[…] of WITT cells total were used. The cells were centrifuged at 1000 rpm for 5 minutes and the pellet was resuspended in 9 mL of WITT media. 1 mL of this cell suspension was added to each of […] and a culture flask. Another 2 mL of WITT media was added to each well in the 12 well plate to bring the total volume up to 3 mL. Another 9 mL was added to the T-25 culture flask to bring that total volume up to 10 mL. The plate and flask were placed in the incubator to allow adherence overnight.
(§3) CpG was administered to activate the cells and induce CLIP expression. 15 uL of 1 mg/mL CpG was added into each CpG treated well. MKR.4 was added to select wells 24 hours after cell activation. The cells were incubated with 3 uL of 5 mg/mL stock MKR.4 in DMSO for 2 hours. Then fresh media with or without Anti MHC Class II was added (5 ul/well of stock at 1 mg/mL). 24 hours after Anti MHC Class II was added to the wells viability counts were performed.

C57BL/6 splenocytes = test: Viability counts of C57BL/6 splenocytes after CpG, MKR.4 and Anti MHC Class II treatment (Example 2); format: cell-based, mouse; details: CpG 5 ug/mL, MKR.4 5 ug/mL, Anti MHC Class II 5 ug/mL, 24 hours after antibody
Experimental: C57BL/6 were Prepared as Follows: • A spleen from a C57BL/6 mouse was placed in a cell strainer in a petri dish with 6 mL of PBS • The spleen was mashed to produce a cell suspension • The PBS splenocyte cell suspension was transferred into a labeled 15 mL conical tube and centrifuged for 5 minutes at 1000 rpm • The pellet was resuspended in 1 mL of PBS • Geys was prepared to lyse the red blood cells • 7 mL of DI H20; • 0.5 mL of Geys B • 0.5 mL of Geys C • weighed out […] of NH4Cl • Mixed the […] of NH4Cl with 2 mL of Geys A • Transferred the dissolved solution to a 15 mL conical tube with the H20, Geys B, and Geys C • 3 mL of the Geys solution was added to the 1 mL of PBS cell suspension, mixed well and placed on ice for 1 minute (frequently inverted solution in tube on ice during the 1 minute) • The mixture was centrifuged for 5 minutes at 1000 rpm, washed with 5 mL of PBS, centrifuged for 5 minutes at 1000 rpm and resuspended in 10 mL of PBS • A hemacytometer count was performed: 99.0*10^6 cells total (9.9*10^6 cells/mL) plate 4*10^6 cells per well*8 wells=32 million; 32*10^6/9.9*10^6=3.23 mL of this suspension needed to obtain 32*10^6 cells • Centrifuged 3.23 mL of the suspension for 5 minutes at 1000 rpm and resuspended the pellet in 8 mL of 5% FBS RPMI • 1 mL of suspension was added to each well (12-well plate) • Added another 2 mL of 5% FBS RPMI to each well to bring the final volume up to 3 mL
as §1
CpG: (x) (1 mg/mL stock)=(5 ug/mL) (3 mL) x=15 ul
MKR.4: (x) (5 mg/mL stock)=(5 ug/mL) (3 mL) x=3 ul
Anti MHC Class II: Treat at 5 ug/mL; Stock is at 1 mg/mL; (x) (1 mg/mL)=(5 ug/mL) (3 mL); x=15 ul/well
as §2

H69 cells = test: Hemacytometer viability counts of H69 cells after CpG, MKR.4 and anti-class II treatment (Example 3); format: cell-based, human; details: 24 hours after anti-class II
Experimental: Based on cell counts 500,000 H69 cells per well were set up in a 6 well plate-4.0*10^6/2.95*10^6=1.36 mL. The 1.36 mL was added to a new 15 mL conical tube and centrifuged for 5 minutes at 1000 rpm. The pellet was resuspended in 8 mL of H69 media and 1 mL of cell suspension was added to each well. 2 mL of H69 media was added to each well to bring the total volume/well up to 3 mL and the plates were placed in an incubator.
as §3

MCF7 ADR cells = test: Viability counts of MCF7 ADR cells after B-estradiol treatment (Example 5); format: cell-based, human; details: 10 nM B-estradiol, about 19 hours after treatment
Experimental: (§4) MCF7 (ATCC (cat# HTB-22)) and MCF7-ADR were grown in 10% FBS RPMI (Gibco RPMI 1640 media cat #21870076) supplemented with Fetal Bovine Serum, L-Glutamine, […], Hepes Buffer, Sodium Pyruvate, and Gentamicin). 1.07*10^6MCF7 cells were plated per well in 2 wells. […] ADR cells were plated per well in 2 wells. The cells were treated with B-estradiol from Sigma (Cat# E2758-250 mg, Lot#110M0138V). In order to prepare a 10 nM final concentration 27.238 mg of B-estradiol was weighed under the hood with a sterile weigh boat and spatula and dissolved in 1 mL of DMSO to make a 0.1M stock, which was then diluted twice: • 1:1000 dilution (1 ul of the 0.1M stock to 999 ul PBS) • 1:100 dilution (10 ul of the 1:000 dilution to 990 ul PBS) 20 ul of the 1:100 diluted solution was added to a final volume of 2 mL per treatment well. The MCF7 and MCF7 ADR were harvested about 19 hours after treatment. The cells were counted and viability is shown below.

MCF7 cells = test: Viability counts of MCF7 cells after B-estradiol treatment (Example 5); format: cell-based, human; details: 10 nM B-estradiol, about 19 hours after treatment
Experimental: as §4

[2] = system: B cells from CLIP−/− (Invariant Chain deficient) mice; test: Cell death of B cells isolated from CLIP-/- mice (Example 6, FIG. 6B); format: cell-based, mouse; details: MKR.4 5 μg/mL, anti-MHCII 2.5 μg/mL, 24 hours
Experimental: (§5) B cells were isolated from the spleens 12 week old male C57B/6 or CLIP−/− (Invariant Chain deficient) mice (Jackson Labs) using the Miltenyi Biotech B cell isolation kit according to the manufacturer's directions. Cells were incubated with or without CpG-ODN (1 mg/mL SEQ ID NO 9: 5′-[…]-3′, purchased from Invivogen) for 48 hours followed by treatment with 5 μg/mL MKR.4 (5 mg/mL, SEQ ID NO 8: ANS GFR IMA VLA SGG QY). Cells were incubated with MKR.4 for 1 hour and then washed followed by treatment with 2.5 μg/mL anti-MHCII (IA/IE, BD Bioscience). 24 hours after anti-MHCII treatment cells were analyzed for cell death using Acridine Organge/propidium iodide staining measured on the Cellometer (Nexcelom), propidium iodide and foreword Vs. side scatter staining measured on a BD FACS Canto II flow cytometer (BD Bioscience). Data was analyzed using FlowJo software (TreeStar).

CRL-5822 cells [3] = test: Viability counts of CRL-5822 cells after LPS, MKR.4 and Anti MHC Class II treatment (Example 1); format: cell-based; details: LPS 1 ug/mL, MKR.4 2.5 ug/mL, Anti MHC Class II 5 ug/mL, 24 hours after antibody
Experimental: The media was removed from a flask of CRL-5822 using a sterile glass pipet and vacuum and 1.5 mL of accutase was added to the flask and placed in incubator for 20 minutes. The cells were washed with 3 mL of PBS and transferred to a sterile 15 mL conical tube and centrifuged for 5 minutes @ 1000 rpm. The supernatant was removed with sterile glass pipet and vacuum and the pellet resuspended in 5 mL of PBS. A cell count was performed using the TC-10 automated counter and 10 ul of cell suspension+10 ul of trypan blue was loaded into disposable counting slide and put in the TC-10. The following count was made: Live: 3.54*10^4 cells/mL*5 mL=177,000 cells total & 177,000/9 wells (8 wells in experiment+1 to maintain culture)=19,666 cells/well (flask).
The 5 mL of cell suspension was centrifuged for 5′ at 1000 rpm, the pellet was resuspended in 9 mL of 10% FBS RPMI. 1 mL of the cell suspension was added to a T-25 flask that had 4 mL of media in it and placed in the incubator. After culture 1 mL of the cell suspension was added to each well (8 wells in a labeled 24 well plate). A fresh vial of MKR.4 was resuspended in sterile DMSO. 7 mg of peptide was used to make a 5 mg/mL stock (7 mg/mL=5 mg/mL=1.4 mL of DMSO). The peptide was added into 1.4 mL of DMSO, under the hood to maintain sterility. Once all of the peptide was dissolved, 200 ul aliquots were made. […]

B cells from C57B/6 mice = test: Cell death of B cells isolated from C57B/6 mice (Example 6, FIG. 6A); format: cell-based, mouse; details: C57B/6 B cells stimulated with CpG 48 hours, MKR.4 5 μg/mL 1 hour, anti-MHCII 2.5 μg/mL, 24 hours
Experimental: as §5

Compound	Total Dead (CRL-5822 cells [1])	Total Live (CRL-5822 cells [1])	Dead (WITT cells)	Live (WITT cells)	Total Dead (C57BL/6 splenocytes)	Total Live (C57BL/6 splenocytes)	Dead (H69 cells)	Live (H69 cells)	Dead (MCF7 ADR cells)	Live (MCF7 ADR cells)	Dead (MCF7 cells)	Live (MCF7 cells)	percent change in cell death [2]	Total Dead (CRL-5822 cells [3])	Total Live (CRL-5822 cells [3])	percent change in cell death (B cells from C57B/6 mice)
5′-tcgtcgttttgtcgttttgtcgtt-3′ [CpG]	Total Dead: 0.07 *10^6	Total Live: 0.35 * 10^6	0.13*10^6	0.94*10^6	Total Dead: 0.08 *10^6	Total Live: 1.25 * 10^6	Dead: 0.40*10^6	Live: 1.65*10^6	–	–	–	–	–	–	–	–
C[C@]12CC[C@@H]3c4ccc(O)cc4CC[C@H]3[C@@H]1CC[C@@H]2O [B-Estradiol, B-estradiol]	–	–	–	–	–	–	–	–	0.07*10^6	0.47*10^6	0.11*10^6	0.50*10^6	–	–	–	–
ANS GFR IMA VLA SGG QY (ANSGFRIMAVLASGGQY) [MKR.4]	Total Dead: 0.08 *10^6	Total Live: 0.24 * 10^6	0.038*10^6	0.93*10^6	Total Dead: 0.10 *10^6	Total Live: 0.44 * 10^6	Dead: 0.28*10^6	Live: 1.46*10^6	–	–	–	–	no effect on the cell death caused by the MHC class II antibody	Total Dead: 0.07 *10^6	Total Live: 0.32 * 10^6	restores the increase in cell death
